# Test results: patent US20030170791A1, “Gene family encoding membrane steroid receptors” (priority 2001, published 2003)
# pKd: −log10 of the molar value.
# Key:
# [1] = target: T1, seatrout recombinant mPR produced in E. coli (Cynoscion nebulosus, UniProt Q801D8); assay: Steroid binding to recombinant seatrout mPR produced in E. coli (single-point, competition, saturation, kinetics); details: for specific binding of 3H-steroid (steroid specificity): single-point assay, 10 nM 3H-steroid with or without 100-fold excess non-radioactive steroid
# T1 construct: The coding region of the steroid membrane receptor was amplified by PCR from a full-length cDNA plasmid clone; made in house; host or cells: E. coli BL21 (DE3), pET vector
# T1 sequence (Q801D8 1-352): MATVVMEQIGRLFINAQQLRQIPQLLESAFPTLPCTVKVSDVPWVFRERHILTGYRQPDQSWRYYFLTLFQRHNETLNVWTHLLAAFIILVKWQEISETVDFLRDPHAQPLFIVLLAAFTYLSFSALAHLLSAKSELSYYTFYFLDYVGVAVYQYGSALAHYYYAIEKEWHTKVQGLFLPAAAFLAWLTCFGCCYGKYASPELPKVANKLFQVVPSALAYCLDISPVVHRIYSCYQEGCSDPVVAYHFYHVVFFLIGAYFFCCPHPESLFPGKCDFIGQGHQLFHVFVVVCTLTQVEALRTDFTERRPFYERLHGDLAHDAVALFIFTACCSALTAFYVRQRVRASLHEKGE
# Method: The cloned membrane progestin receptor was expressed in E. coli and the binding of the recombinant protein to steroids was analyzed by a radiolabeled receptor assay.
# (§1) The PCR products were purified by electrophoresis using low-melting gel and a QIAquick Gel Extraction Kit. The purified PCR product was ligated into a pET expression vector. The pET vector was transformed into BL21 (DE3) E. coli cells. The positive clones were purified and sequenced. The plasmid without an insert was used as control. Recombinant protein was induced with IPTG at 25° C. and soluble recombinant proteins were extracted and analyzed.
# (§2) Initially, steroid specificity of the recombinant receptor was determined from single-point competition assays using 10 nM ^3H-steroid in the absence (total binding) or presence of 100-fold excess non-radioactive steroid (nonspecific binding, FIG. 8).
# Full competition curves were generated with 10 nM 3H-progesterone (total binding) or in combination with 1 nM-10 μM of various steroids (FIG. 8).
# (§3) Saturation kinetics of H^3-progesterone binding to the recombinant receptor were conducted with 7 progesterone concentrations (range 0.5-40 nM) in the absence (total binding) or presence of 1 μM excess cold steroid (nonspecific binding, FIG. 11).
# E. coli control proteins = assay: Steroid binding to E. coli control proteins (vector without insert); details: for binding to the control proteins: single-point assay, 10 nM 3H-steroid
# Method: as §1
# as §2, with “8). […] No binding of P4 and 17-P to the control proteins was observed (FIG. 7).” for “8).”
# as §3
# [2] = target: T2, recombinant human kidney mSR (Homo sapiens, UniProt Q9NXK6); assay: 3H-progesterone binding to recombinant human kidney mSR (saturation, kinetics, competition); details: for displacement of 3H-progesterone: competition curves, 10 nM 3H-progesterone, 1 nM-10 μM competitor
# T2 construct: The coding region of the steroid membrane receptor was amplified by PCR from a full-length cDNA plasmid clone; made in house; host or cells: E. coli
# T2 sequence (Q9NXK6 1-330): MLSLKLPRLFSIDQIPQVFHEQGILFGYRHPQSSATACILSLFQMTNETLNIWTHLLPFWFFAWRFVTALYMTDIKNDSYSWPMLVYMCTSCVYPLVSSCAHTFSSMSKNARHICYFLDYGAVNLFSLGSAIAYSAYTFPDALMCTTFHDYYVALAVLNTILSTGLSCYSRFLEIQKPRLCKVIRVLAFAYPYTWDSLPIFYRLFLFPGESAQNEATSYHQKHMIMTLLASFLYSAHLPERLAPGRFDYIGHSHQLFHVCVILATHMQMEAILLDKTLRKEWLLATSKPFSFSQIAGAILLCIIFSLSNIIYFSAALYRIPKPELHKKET
# Method: (§4) Receptor Binding of Human Membrane Steroid Receptors. Mouse testicular and human testicular and kidney mSR were expressed in E. coli and binding of the recombinant proteins to steroids was studied. The membrane steroid receptor from human brain was not expressed since the clone only contains part of the coding region.
# (§5) Binding Characters of Human Kidney Membrane Steroid Receptor. Saturation kinetics of ^3H-progesterone binding to the recombinant human kidney mSR was conducted with 7 progesterone concentrations (range 0.5-40 nM) in the absence (total binding) or presence of 1 μM excess cold steroid (nonspecific binding, FIG. 23).
# The specific binding dissociated quickly with a t1/2 dissociation of 2 minutes (FIG. 24).
# Full competition curves were generated with 10 nM 3 H-progesterone (total binding) or in combination with 1 nM-10 μM of various steroids (FIG. 25, 26). […] This binding was very specific for 21 carbon steroids lacking a functional group at the 11 position.
# [3] = target: T3, solubilized seatrout ovarian membrane progestin (20β-S) receptor (Cynoscion nebulosus, UniProt Q801D8); assay: [3H]20β-S binding to solubilized seatrout ovarian membrane progestin receptor (DCC assay; saturation, Scatchard, association/dissociation); design: species or system spotted seatrout (Cynoscion nebulosus)
# T3 sequence (Q801D8 1-352): T1 sequence (Q801D8 1-352)
# Method: 20β-S receptor binding in solubilized membrane preparations was assayed using dextran-coated charcoal (DCC) to separate bound from steroid. The incubation conditions were similar to those used for the intact membrane preparation with the exception that 100-fold excess unlabeled 20β-S was used to determine non-specific binding. The incubation was terminated by adding 1-ml ice-cold DCC suspension (0.1 g dextran T-70 and 1 g charcoal per 100 ml HA buffer). The tubes were vortexed and the reaction mixture was incubated on ice for 5 minutes to absorb free steroid followed by centrifugation at 3200 g for 10 minutes at 4° C. The radioactivities of the filters or supernatants were measured using Beckman LS 6000SC Scintillation Counter (Beckman Instruments Inc., Houston, Tex.).
# Saturation kinetics of [^3H]20β-S binding to the solubilized membrane receptor was conducted with six radiolabeled 20β-S concentrations (range 0.25-10 nM) in the absence (total binding) or presence of 100-fold excess cold steroid (non-specific binding). The dissociation constant (Kd) and receptor concentration (Bmax) were calculated from Scatchard plots. One point assays were conducted with 5 nM radiolabeled 20β-S with or without 100-fold excess unlabeled steroid.
# The rate of 20β-S association to the solubilized receptor was determined by measuring the specific binding of [^3H]20β-S after-incubation periods of 30 seconds to 24 hours. The rate of dissociation was determined by first allowing samples to equilibrate with tracer for 30 minutes before the addition of 100-fold excess unlabeled 20β-S and incubation for periods of 30 seconds to 24 hours.
# [4] = target: T4, recombinant human testicular mSR (Homo sapiens, UniProt Q86WK9); assay: Saturation/Scatchard analysis of 3H-progesterone binding to recombinant human testicular mSR; details: Scatchard analysis
# T4 construct: The coding region of the steroid membrane receptor was amplified by PCR from a full-length cDNA plasmid clone; made in house; host or cells: E. coli
# T4 sequence (Q86WK9 1-346): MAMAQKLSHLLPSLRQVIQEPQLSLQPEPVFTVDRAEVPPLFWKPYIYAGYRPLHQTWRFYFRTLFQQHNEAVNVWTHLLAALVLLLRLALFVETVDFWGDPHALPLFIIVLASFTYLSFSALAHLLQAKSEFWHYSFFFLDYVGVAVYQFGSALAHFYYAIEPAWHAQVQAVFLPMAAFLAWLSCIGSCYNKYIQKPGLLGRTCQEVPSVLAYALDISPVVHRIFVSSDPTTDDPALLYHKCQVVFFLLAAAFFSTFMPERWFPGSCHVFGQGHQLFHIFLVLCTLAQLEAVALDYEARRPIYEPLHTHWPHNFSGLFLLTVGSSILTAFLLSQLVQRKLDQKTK
# Method: as §4
# as §5, with “Characteristics” for “Characters”, “Testicular” for “Kidney”, “testicular” for “kidney”, “22).” for “23).”
# [5] = target: T5, recombinant mouse testicular mSR (Mus musculus, UniProt Q80ZE5); assay: Saturation/Scatchard analysis of 3H-progesterone binding to recombinant mouse testicular mSR; details: Scatchard analysis
# T5 construct: The coding region of the steroid membrane receptor was amplified by PCR from a full-length cDNA plasmid clone; made in house; host or cells: E. coli
# T5 sequence (Q80ZE5 1-354): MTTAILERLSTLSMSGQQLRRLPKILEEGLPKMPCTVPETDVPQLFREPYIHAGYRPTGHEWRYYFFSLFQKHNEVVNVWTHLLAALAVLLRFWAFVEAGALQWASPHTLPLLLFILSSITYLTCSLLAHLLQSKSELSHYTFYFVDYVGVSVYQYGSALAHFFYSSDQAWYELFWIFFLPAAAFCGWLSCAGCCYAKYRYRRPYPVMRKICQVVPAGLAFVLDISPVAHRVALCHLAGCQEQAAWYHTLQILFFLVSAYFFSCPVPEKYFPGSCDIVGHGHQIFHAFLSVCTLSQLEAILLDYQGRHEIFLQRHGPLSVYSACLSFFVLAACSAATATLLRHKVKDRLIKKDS
# Method: as §4
# as §5, with “Characteristics” for “Characters”, “Mouse Testicular” for “Human Kidney”, “mouse testicular” for “human kidney”, “of” for “of 1 μM”, “21).” for “23).”
molecule,measurement,setting,value
C[C@]12CCC(=O)C[C@@H]1CC[C@@H]1[C@@H]2CC[C@]2(C)[C@@H](O)CC[C@@H]12 [5α-dihydrotestosterone],specific binding of 3H-steroid (steroid specificity),[1],no specific binding
C[C@]12CC(=O)[C@H]3[C@@H](CCC4=CC(=O)CC[C@@]43C)[C@@H]1CC[C@@H]2O [11-ketotestosterone],specific binding of 3H-steroid (steroid specificity),[1],no specific binding
"C[C@@H](O)[C@@]1(O)CC[C@H]2[C@@H]3CCC4=CC(=O)CC[C@]4(C)[C@H]3CC[C@@]21C [17,20β-P, 17,20β-dihydroxy-4-pregnen-3-one]",specific binding of 3H-steroid (steroid specificity),[1],did not show any specific binding
"CC(=O)[C@@]1(O)CC[C@H]2[C@@H]3CCC4=CC(=O)CC[C@]4(C)[C@H]3CC[C@@]21C [17-P, 17-hydroxyprogesterone]",binding to the control proteins,E. coli control proteins,No binding
same,displacement of 3H-progesterone,"[1]; competition curves, 10 nM 3H-progesterone, 1 nM-10 μM competitor",equipotent with P4
same,specific binding of 3H-steroid (steroid specificity),[1],high affinity
same,displacement of 3H-progesterone,[2],equipotent with P4
"CC12CCC(=O)C=C1CCC1C2CCC2(C)C1CCC2(O)C(O)CO (stereo not drawn) [20β-S, 17,20β,21-trihydroxy-4-pregnen-3-one]",specific binding of 3H-steroid (steroid specificity),[1],did not show any specific binding
same,Bmax,"[3]; Scatchard analysis, [3H]20β-S",0.204 pmol g^−1 ovary
same,time to full displacement,[3]; after 100-fold excess unlabeled 20β-S,≤ 20 min
same,time to reach saturation of binding,[3]; equilibrium study,≤ 15 min
same,concentration at which saturation was achieved,[3]; saturation analysis,approximately 10 nM
CC[C@H](C)[C@@H]1NC(=O)[C@H](Cc2ccc(O)cc2)NC(=O)[C@@H](N)CSSC[C@@H](C(=O)N2CCC[C@H]2C(=O)N[C@@H](CC(C)C)C(=O)NCC(N)=O)NC(=O)[C@H](CC(N)=O)NC(=O)[C@H](CCC(N)=O)NC1=O [oxytocin],displacement of 3H-progesterone,[2],no displacement
CC(=O)[C@H]1CC[C@H]2[C@@H]3CCC4=CC(=O)CC[C@]4(C)[C@H]3CC[C@]12C [progesterone],specific binding to E. coli control proteins,"E. coli control proteins; saturation analysis, 3H-progesterone",no specific binding
same,binding to the control proteins,E. coli control proteins,No binding
same,pKd,[1],7.52
same,Bmax,"[1]; Scatchard analysis, 3H-progesterone",0.49 nM
same,specific binding of 3H-steroid (steroid specificity),[1],Highest specific binding
same,Bmax,[4],0.47 nM
same,pKd,[4]; 3H-progesterone 0.5-40 nM,7.43
same,Bmax,[2]; Scatchard analysis,0.54 nM
same,pKd,"[2]; Scatchard analysis, 3H-progesterone 0.5-40 nM",7.55
same,Bmax,[5],0.304 nM
same,pKd,[5]; 3H-progesterone 0.5-40 nM,7.54
C[C@]12CC[C@H]3[C@@H](CCC4=CC(=O)CC[C@@]43C)[C@@H]1CC[C@@H]2O [testosterone],specific binding of 3H-steroid (steroid specificity),[1],no specific binding
Vitamin D,displacement of 3H-progesterone,[2],no displacement
